Source: patent US9403834B2, “Pyrrolotriazines as potassium ion channel inhibitors” (BRISTOL-MYERS SQUIBB COMPANY, priority 2013, dated 2016)

The compounds below were run against T1, human Kv 1.5 (Homo sapiens, UniProt P22460) (assay: block of IKur current in patch clamped L-929 cells expressing human Kv1.5). Conditions: 0.3 μM; patch clamped mammalian L-929 cells stably expressing IKur protein.
T1 construct: expressed in transfected cells; host or cells: mammalian L-929 cells (mouse fibroblasts)
Type: cell-based
Description: Assays to determine the degree of activity of a compound as an IKur inhibitor are well known in the art and are described in references such as J. Gen. Physiol., 101(4):513-543 (April 1993), and Br. J. Pharmacol., 115(2):267-274 (May 1995).
1. Synders, D. J. et al., “A rapidly activating and slowly inactivating potassium channel cloned from human heart: functional analysis after stable mammalian cell culture expression”, J. Gen. Physiol., 101:513-543 (1993).
2. Zhou, Z. et al., “Block of HERG potassium channels by the antihistamine astemizole and its metabolites desmethylastemizole and norastemizole”, J. Cardiovasc. Electrophysiol., 10(6):836-843 (1999).

T1 sequence (P22460 whole entry): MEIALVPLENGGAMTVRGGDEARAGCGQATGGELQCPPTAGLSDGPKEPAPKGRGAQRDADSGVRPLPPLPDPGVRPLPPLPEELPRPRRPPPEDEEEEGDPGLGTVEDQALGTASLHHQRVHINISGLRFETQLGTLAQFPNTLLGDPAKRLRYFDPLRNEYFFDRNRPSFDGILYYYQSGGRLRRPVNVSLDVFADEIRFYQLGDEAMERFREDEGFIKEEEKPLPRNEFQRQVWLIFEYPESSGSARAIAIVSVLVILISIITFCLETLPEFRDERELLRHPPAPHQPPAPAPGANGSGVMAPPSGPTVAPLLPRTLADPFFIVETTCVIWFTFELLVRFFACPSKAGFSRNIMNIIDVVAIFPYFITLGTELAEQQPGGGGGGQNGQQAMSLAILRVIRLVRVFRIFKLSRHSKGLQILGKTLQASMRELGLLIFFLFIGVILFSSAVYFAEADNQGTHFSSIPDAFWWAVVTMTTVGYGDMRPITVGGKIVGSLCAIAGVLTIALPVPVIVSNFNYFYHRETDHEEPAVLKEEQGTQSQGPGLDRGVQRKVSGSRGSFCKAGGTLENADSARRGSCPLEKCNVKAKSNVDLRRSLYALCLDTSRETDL

Percentage inhibition of Kv1.5 in L-929 cells at 0.3 μM [%]	Structure (SMILES)
88	CC(Nc1nnc(-c2cncc(S(N)(=O)=O)c2)n2ccc(-c3ccccc3)c12)c1ccccn1 (single isomer, unassigned) [Example 5, 5-(8-phenyl-1-(1-(pyridin-2-yl)ethylamino)pyrrolo[1,2-d][1,2,4]triazin-4-yl)pyridine-3-sulfonamide]

Same assay, conditions: L929, 0.3 μM; patch clamped mammalian L-929 cells stably expressing IKur protein; read-out: Percentage inhibition of Kv1.5 in L-929 cells at 0.3 μM

Structure (SMILES)	inhibition at 0.3 µM [%]
NS(=O)(=O)c1cncc(-c2nnc(Nc3cccc(F)c3)c3c(-c4ccccc4)ccn23)c1 [Example 2, 5-(1-(3-Fluorophenylamino)-8-phenylpyrrolo[1,2-d][1,2,4]triazin-4-yl)pyridine-3-sulfonamide]	91
NS(=O)(=O)c1cncc(-c2nnc(NCc3ccccn3)c3c(-c4ccccc4)ccn23)c1 [Example 4, 5-(8-phenyl-1-(pyridin-2-ylmethylamino)pyrrolo[1,2-d][1,2,4]triazin-4-yl)pyridine-3-sulfonamide]	86
NS(=O)(=O)c1cncc(-c2nnc(NCc3ccccc3)c3c(-c4ccccc4)ccn23)c1 [Example 1, 5-(1-(Benzylamino)-8-phenylpyrrolo[1,2-d][1,2,4]triazin-4-yl)pyridine-3-sulfonamide]	89
NS(=O)(=O)c1cc(-c2nnc(NCc3ccccn3)c3c(-c4ccccc4)ccn23)cnc1C(F)F [Example 3, 2-(Difluoromethyl)-5-(8-phenyl-1-(pyridin-2-ylmethylamino)pyrrolo[1,2-d][1,2,4]triazin-4-yl)pyridine-3-sulfonamide]	95

Other lines, results leading:

inhibition at 0.3 µM [%]	Structure (SMILES)
92	CC(Nc1nnc(-c2cncc(S(N)(=O)=O)c2)n2ccc(-c3ccccc3)c12)c1ccccn1 (single isomer, unassigned) [Example 6, 5-(8-phenyl-1-(1-(pyridin-2-yl)ethylamino)pyrrolo[1,2-d][1,2,4]triazin-4-yl)pyridine-3-sulfonamide]
98	NS(=O)(=O)c1cncc(-c2nnc(NCc3ncccc3F)c3c(-c4ccccc4)ccn23)c1 [Example 7, 5-(1-(((3-fluoropyridin-2-yl)methyl)amino)-8-phenylpyrrolo[1,2-d][1,2,4]triazin-4-yl)pyridine-3-sulfonamide]
93	NS(=O)(=O)c1cncc(-c2nnc(NCc3ccccc3F)c3c(-c4ccccc4)ccn23)c1 [Example 8, 5-(1-(2-fluorobenzylamino)-8-phenylpyrrolo[1,2-d][1,2,4]triazin-4-yl)pyridine-3-sulfonamide]
92	NS(=O)(=O)c1cncc(-c2nnc(NCc3c(F)cccc3F)c3c(-c4ccccc4)ccn23)c1 [Example 9, 5-(1-(2,6-difluorobenzylamino)-8-phenylpyrrolo[1,2-d][1,2,4]triazin-4-yl)pyridine-3-sulfonamide]
